From US6737383B1, “Herbicidal oxadiazolidines” (priority 1999, dated 2004)

Legend:
[1] = system: wheat; test: Test B pre/postemergence wheat; assay type: in vivo, Triticum aestivum
Outline: (§1)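 Response is a visual 0-to-10 score relative to untreated plants, where 0 means no effect and 10 means complete control, taken twelve to sixteen days after application. Treatments went onto soil at planting and onto foliage of 1- to 4-leaf plants, using a surfactant-containing non-phytotoxic solvent.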

[2] = system: duck salad; test: Test B flood test duck salad; assay type: in vivo, Heteranthera limosa; details: for Plant response rating, Ducksalad (0 to 10 scale, 0 is no effect, 10 is complete control): Rate 62 g/ha; for Plant response rating, Ducksalad (0 to 10 scale, 0 is no effect, 10 is complete control) / Ducksalad plant response rating (0 to 10 scale, 0 is no effect, 10 is complete control): visual evaluation after twelve to sixteen days; for Ducksalad plant response rating (0 to 10 scale, 0 is no effect, 10 is complete control): Rate 125 g/ha, under heading Pre-emergence
Outline: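 Read-out is a visual response score from 0 (no effect) to 10 (complete control), assigned by comparison with untreated controls. Treatment was applied at the 2-leaf stage, and plants stayed in the greenhouse for twelve to sixteen days before scoring.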

[3] = system: crabgrass; test: Test B pre/postemergence crabgrass; assay type: in vivo, Digitaria sanguinalis
Outline: as §1

[4] = system: giant foxtail; test: Test B pre/postemergence giant foxtail; assay type: in vivo, Setaria faberii
Outline: as §1

[5] = Postemergence, Rate 125 g/ha, scale 0 to 10, 0 is no effect, 10 is complete control
[6] = Postemergence, Rate 250 g/ha, scale 0 to 10
[7] = Preemergence, Rate 62 g/ha, scale of 0 to 10 where 0 is no effect and 10 is complete control
[8] = Preemergence, Rate 125 g/ha, scale 0 to 10, 0 is no effect, 10 is complete control
[9] = Preemergence, Rate 250 g/ha, scale 0 to 10, 0 is no effect, 10 is complete control
[10] = Preemergence, Rate 500 g/ha, scale 0 to 10, 0 is no effect, 10 is complete control
[11] = Rate 62 g/ha, Postemergence, scale 0 to 10, 0 no effect, 10 complete control
[12] = flood test species, Pre-emergence
[13] = Rate 250 g/ha, Pre-emergence (flood test species), scale 0 to 10, 0 is no effect, 10 is complete control
[14] = Postemergence, Rate 500 g/ha, scale of 0 to 10 where 0 is no effect and 10 is complete control
[15] = Postemergence, Rate 31 g/ha, visual rating, scale 0 to 10 (0 no effect, 10 complete control)
[16] = Preemergence, Rate 31 g/ha, visual rating, scale 0 to 10 (0 no effect, 10 complete control)
[17] = Postemergence, Rate 62 g/ha, scale 0 to 10, 0 is no effect, 10 is complete control
[18] = Postemergence, Rate 125 g/ha, scale of 0 to 10 where 0 is no effect and 10 is complete control
[19] = Postemergence, Rate 250 g/ha, scale of 0 to 10, 0 is no effect, 10 is complete control
[20] = Preemergence, Rate 62 g/ha, scale 0 to 10 (0 no effect, 10 complete control)
[21] = Preemergence, Rate 125 g/ha, scale of 0 to 10 where 0 is no effect and 10 is complete control
[22] = Preemergence, Rate 250 g/ha, scale 0 to 10 (0 no effect, 10 complete control)
[23] = Preemergence, Rate 500 g/ha, scale of 0 to 10 where 0 is no effect and 10 is complete control
[24] = Rate 500 g/ha, Pre-emergence section of Table B, 0 to 10 scale (0 no effect, 10 complete control)

CC(C)N(C(=O)n1oc(=O)n(Cc2cnc(Cl)s2)c1=O)c1ccc(F)cc1 [Compound 482]
Wheat plant response rating [1, 5]: 0 | Wheat plant response rating [1, 6]: 0 | Plant response rating, Wheat [1, 7]: 0 | Wheat plant response rating [1, 8]: 0 | Wheat plant response rating [1, 9]: 0 | Wheat plant response rating [1, 10]: 0 | Wheat plant response rating [1, 11]: 0 | Plant response rating, Ducksalad (0 to 10 scale, 0 is no effect, 10 is complete control) [2, 12]: 0 | Ducksalad plant response rating (0 to 10 scale, 0 is no effect, 10 is complete control) ([2]; flood test species): 0 | Ducksalad plant response rating [2, 13]: 0 | Ducksalad plant response rating ([2]; Rate 500 g/ha, Pre-emergence, flood test species, scale 0 to 10 (0 no effect, 10 complete control)): 0 | Crabgrass plant response rating [3, 5]: 0 | Crabgrass plant response rating [3, 6]: 1 | Crabgrass plant response rating [3, 14]: 3 | Plant response rating, Crabgrass [3, 7]: 3 | Crabgrass plant response rating [3, 8]: 8 | Crabgrass plant response rating [3, 9]: 8 | Crabgrass plant response rating [3, 10]: 8 | Crabgrass plant response rating [3, 11]: 0 | Giant foxtail plant response rating [4, 5]: 0 | Giant foxtail plant response rating [4, 6]: 0 | Giant foxtail plant response rating [4, 14]: 2 | Plant response rating, Giant foxtail [4, 7]: 1 | Giant foxtail plant response rating [4, 8]: 6 | Giant foxtail plant response rating [4, 9]: 8 | Giant foxtail plant response rating [4, 10]: 9 | Giant foxtail plant response rating [4, 11]: 0

CC(C)N(C(=O)n1oc(=O)n(CC[N+](=O)[O-])c1=O)c1ccc(Cl)cc1 [Compound 483]
Wheat plant response rating [1, 15]: 0 | Wheat plant response rating [1, 5]: 0 | Wheat plant response rating [1, 6]: 0 | Plant response rating, Wheat [1, 7]: 0 | Wheat plant response rating [1, 8]: 0 | Wheat plant response rating [1, 9]: 0 | Wheat plant response rating [1, 11]: 0 | Ducksalad plant response rating ([2]; Rate 31 g/ha, Pre-emergence section (flood test species), scale 0 to 10): 0 | Plant response rating, Ducksalad (0 to 10 scale, 0 is no effect, 10 is complete control) [2, 12]: 0 | Ducksalad plant response rating (0 to 10 scale, 0 is no effect, 10 is complete control) ([2]; flood test species): 0 | Ducksalad plant response rating [2, 13]: 0 | Crabgrass plant response rating [3, 15]: 0 | Crabgrass plant response rating [3, 5]: 0 | Crabgrass plant response rating [3, 6]: 0 | Crabgrass plant response rating [3, 16]: 0 | Plant response rating, Crabgrass [3, 7]: 0 | Crabgrass plant response rating [3, 8]: 0 | Crabgrass plant response rating [3, 9]: 0 | Crabgrass plant response rating [3, 11]: 0 | Giant foxtail plant response rating [4, 15]: 0 | Giant foxtail plant response rating [4, 5]: 0 | Giant foxtail plant response rating [4, 6]: 0 | Giant foxtail plant response rating [4, 16]: 0 | Plant response rating, Giant foxtail [4, 7]: 0 | Giant foxtail plant response rating [4, 8]: 0 | Giant foxtail plant response rating [4, 9]: 0 | Giant foxtail plant response rating [4, 11]: 0

CC(C)N(C(=O)n1oc(=O)n(CNC(=O)c2ccccc2)c1=O)c1ccc(F)cc1F [Compound 619]
Plant response rating, Wheat [1, 17]: 0 | Plant response rating, Wheat [1, 18]: 0 | Wheat plant response rating [1, 19]: 0 | Wheat plant response rating [1, 20]: 0 | Wheat plant response rating [1, 21]: 0 | Plant response rating, Wheat [1, 22]: 0 | Plant response rating, Wheat [1, 23]: 0 | Plant response rating, Ducksalad (0 to 10 scale, 0 is no effect, 10 is complete control) [2, 12]: 0 | Ducksalad plant response rating (0 to 10 scale, 0 is no effect, 10 is complete control) ([2]; flood test species): 0 | Ducksalad plant response rating [2, 13]: 0 | Ducksalad plant response rating [2, 24]: 0 | Plant response rating, Crabgrass [3, 17]: 0 | Plant response rating, Crabgrass [3, 18]: 0 | Crabgrass plant response rating [3, 19]: 0 | Plant response rating, Crabgrass [3, 14]: 2 | Crabgrass plant response rating [3, 20]: 0 | Crabgrass plant response rating [3, 21]: 1 | Plant response rating, Crabgrass [3, 22]: 6 | Plant response rating, Crabgrass [3, 23]: 8 | Plant response rating, Giant foxtail [4, 17]: 0 | Plant response rating, Giant foxtail [4, 18]: 0 | Giant foxtail plant response rating [4, 19]: 0 | Plant response rating, Giant foxtail [4, 14]: 3 | Giant foxtail plant response rating [4, 20]: 0 | Giant foxtail plant response rating [4, 21]: 3 | Plant response rating, Giant foxtail [4, 22]: 7 | Plant response rating, Giant foxtail [4, 23]: 8

CC(=O)NCn1c(=O)on(C(=O)N(c2ccccc2)C(C)C)c1=O [Compound 621]
Plant response rating, Wheat [1, 17]: 0 | Plant response rating, Wheat [1, 18]: 0 | Wheat plant response rating [1, 19]: 0 | Wheat plant response rating [1, 20]: 0 | Wheat plant response rating [1, 21]: 0 | Plant response rating, Wheat [1, 22]: 0 | Plant response rating, Wheat [1, 23]: 0 | Plant response rating, Ducksalad (0 to 10 scale, 0 is no effect, 10 is complete control) [2, 12]: 0 | Ducksalad plant response rating (0 to 10 scale, 0 is no effect, 10 is complete control) ([2]; flood test species): 0 | Ducksalad plant response rating [2, 13]: 0 | Ducksalad plant response rating [2, 24]: 0 | Plant response rating, Crabgrass [3, 17]: 0 | Plant response rating, Crabgrass [3, 18]: 3 | Crabgrass plant response rating [3, 20]: 5 | Crabgrass plant response rating [3, 21]: 6 | Plant response rating, Crabgrass [3, 22]: 7 | Plant response rating, Crabgrass [3, 23]: 8 | Plant response rating, Giant foxtail [4, 17]: 0 | Plant response rating, Giant foxtail [4, 18]: 0 | Giant foxtail plant response rating [4, 19]: 1 | Plant response rating, Giant foxtail [4, 14]: 7 | Giant foxtail plant response rating [4, 20]: 0 | Giant foxtail plant response rating [4, 21]: 7 | Plant response rating, Giant foxtail [4, 22]: 7 | Plant response rating, Giant foxtail [4, 23]: 10

CC(=O)N(C)CCn1c(=O)on(C(=O)N(c2ccc(F)cc2)C(C)C)c1=O [Compound 625]
Plant response rating, Wheat [1, 17]: 0 | Plant response rating, Wheat [1, 18]: 0 | Wheat plant response rating [1, 19]: 0 | Wheat plant response rating [1, 20]: 0 | Wheat plant response rating [1, 21]: 0 | Plant response rating, Wheat [1, 22]: 0 | Plant response rating, Wheat [1, 23]: 3 | Plant response rating, Ducksalad (0 to 10 scale, 0 is no effect, 10 is complete control) [2, 12]: 0 | Ducksalad plant response rating (0 to 10 scale, 0 is no effect, 10 is complete control) ([2]; flood test species): 0 | Ducksalad plant response rating [2, 13]: 0 | Ducksalad plant response rating [2, 24]: 0 | Plant response rating, Crabgrass [3, 17]: 1 | Plant response rating, Crabgrass [3, 18]: 0 | Crabgrass plant response rating [3, 19]: 4 | Plant response rating, Crabgrass [3, 14]: 8 | Crabgrass plant response rating [3, 20]: 2 | Crabgrass plant response rating [3, 21]: 7 | Plant response rating, Crabgrass [3, 22]: 8 | Plant response rating, Crabgrass [3, 23]: 10 | Plant response rating, Giant foxtail [4, 17]: 0 | Plant response rating, Giant foxtail [4, 18]: 3 | Giant foxtail plant response rating [4, 19]: 5 | Plant response rating, Giant foxtail [4, 14]: 9 | Giant foxtail plant response rating [4, 20]: 6 | Giant foxtail plant response rating [4, 21]: 9 | Plant response rating, Giant foxtail [4, 22]: 10 | Plant response rating, Giant foxtail [4, 23]: 10
